From the NIST ThermoML archive (doi:10.1021/acs.jced.5b00197)

Experiment: refractive index (other wavelength) (dimensionless); xn = mol fraction of the nth substance listed
Details: 94.64 kPa, Liquid, Standard Abbe refractometry

CC(=O)O [acetic acid] + O
refractive index
Details	Wavelength=404.7 nm	Wavelength=435.8 nm	Wavelength=486.1 nm	Wavelength=546.1 nm	Wavelength=587.6 nm	Wavelength=632.8 nm	Wavelength=644 nm	Wavelength=706.5 nm
293.15 K, x1 = 0.0322	1.35074	1.34808	1.34498	1.34229	1.34084	1.3395	1.33919	1.33766
293.15 K, x1 = 0.0697	1.35808	1.35532	1.35218	1.3494	1.34797	1.34664	1.34631	1.34473
293.15 K, x1 = 0.114	1.36535	1.36252	1.35924	1.35643	1.35495	1.35355	1.35322	1.35158
293.15 K, x1 = 0.167	1.37162	1.36869	1.36533	1.36247	1.36095	1.35953	1.35919	1.35756
293.15 K, x1 = 0.231	1.37678	1.3738	1.37034	1.36744	1.36589	1.36444	1.36411	1.36247
293.15 K, x1 = 0.31	1.38181	1.37874	1.37522	1.37227	1.37068	1.36921	1.36888	1.36724
293.15 K, x1 = 0.412	1.38536	1.38226	1.37869	1.37571	1.37412	1.37264	1.3723	1.37065
293.15 K, x1 = 0.545	1.38847	1.3853	1.38169	1.37868	1.37709	1.37561	1.37526	1.37359
293.15 K, x1 = 0.629	1.38867	1.3855	1.38192	1.37889	1.3773	1.37583	1.37548	1.37381
293.15 K, x1 = 0.729	1.38865	1.38547	1.38189	1.37886	1.37727	1.37581	1.37547	1.37382
293.15 K, x1 = 0.85	1.38695	1.38381	1.38021	1.37723	1.37565	1.37419	1.37386	1.37224
293.15 K, x1 = 1	1.38345	1.38034	1.37681	1.37386	1.3723	1.37087	1.37055	1.36896
298.15 K, x1 = 0.0322	1.34997	1.34733	1.34424	1.34156	1.34012	1.33879	1.33848	1.33695
298.15 K, x1 = 0.0697	1.35708	1.35435	1.35121	1.34845	1.347	1.34567	1.34535	1.34377
298.15 K, x1 = 0.114	1.36413	1.36131	1.35805	1.35525	1.35378	1.35239	1.35206	1.35044
298.15 K, x1 = 0.167	1.37026	1.36733	1.36401	1.36114	1.35963	1.35823	1.3579	1.35625
298.15 K, x1 = 0.231	1.37523	1.37226	1.36885	1.36595	1.36441	1.36298	1.36265	1.36102
298.15 K, x1 = 0.31	1.38012	1.37707	1.37358	1.37063	1.36906	1.36762	1.36728	1.36564
298.15 K, x1 = 0.412	1.38357	1.38048	1.37695	1.37398	1.37239	1.37092	1.37059	1.36894
298.15 K, x1 = 0.545	1.38656	1.38342	1.37983	1.37683	1.37525	1.37378	1.37344	1.37178
298.15 K, x1 = 0.629	1.38681	1.38367	1.38008	1.37709	1.37551	1.37404	1.3737	1.37205
298.15 K, x1 = 0.729	1.38668	1.38352	1.37994	1.37695	1.37536	1.3739	1.37357	1.37193
298.15 K, x1 = 0.85	1.38488	1.38174	1.37819	1.37522	1.37365	1.37221	1.37188	1.37027
298.15 K, x1 = 1	1.38126	1.37816	1.37466	1.37174	1.37018	1.36876	1.36844	1.36686
303.15 K, x1 = 0.0322	1.34916	1.34654	1.34343	1.34077	1.33932	1.338	1.3377	1.3362
303.15 K, x1 = 0.0697	1.35605	1.35332	1.35017	1.34743	1.34598	1.34464	1.34432	1.34275
303.15 K, x1 = 0.114	1.36289	1.36008	1.35684	1.35405	1.35256	1.35117	1.35085	1.34926
303.15 K, x1 = 0.167	1.36886	1.36596	1.36261	1.35979	1.35827	1.35686	1.35653	1.35492
303.15 K, x1 = 0.231	1.37369	1.37074	1.36734	1.36446	1.36293	1.36151	1.36118	1.35956
303.15 K, x1 = 0.31	1.37842	1.37539	1.37192	1.36899	1.36742	1.36598	1.36565	1.36402
303.15 K, x1 = 0.412	1.38176	1.37869	1.37516	1.37223	1.37064	1.36917	1.36884	1.36722
303.15 K, x1 = 0.545	1.38463	1.3815	1.37794	1.37497	1.37337	1.3719	1.37157	1.36995
303.15 K, x1 = 0.629	1.38481	1.38167	1.37813	1.37513	1.37355	1.3721	1.37176	1.37013
303.15 K, x1 = 0.729	1.38467	1.38153	1.37797	1.375	1.37341	1.37196	1.37163	1.37002
303.15 K, x1 = 0.85	1.38283	1.37972	1.37618	1.37323	1.37166	1.37023	1.3699	1.36831
303.15 K, x1 = 1	1.37917	1.37611	1.37261	1.36968	1.36815	1.36675	1.36643	1.36485
